Data on three molecules can be found in ChEMBL document CHEMBL3525911, “The development, characterization, and application of an OATP1B1 inhibition assay in drug discovery” (Drug Metab Dispos, 2012).

Data set [1] deals with T1, Solute carrier organic anion transporter family member 1B1 (Homo sapiens, UniProt Q9Y6L6).
T1 sequence (Q9Y6L6 whole entry): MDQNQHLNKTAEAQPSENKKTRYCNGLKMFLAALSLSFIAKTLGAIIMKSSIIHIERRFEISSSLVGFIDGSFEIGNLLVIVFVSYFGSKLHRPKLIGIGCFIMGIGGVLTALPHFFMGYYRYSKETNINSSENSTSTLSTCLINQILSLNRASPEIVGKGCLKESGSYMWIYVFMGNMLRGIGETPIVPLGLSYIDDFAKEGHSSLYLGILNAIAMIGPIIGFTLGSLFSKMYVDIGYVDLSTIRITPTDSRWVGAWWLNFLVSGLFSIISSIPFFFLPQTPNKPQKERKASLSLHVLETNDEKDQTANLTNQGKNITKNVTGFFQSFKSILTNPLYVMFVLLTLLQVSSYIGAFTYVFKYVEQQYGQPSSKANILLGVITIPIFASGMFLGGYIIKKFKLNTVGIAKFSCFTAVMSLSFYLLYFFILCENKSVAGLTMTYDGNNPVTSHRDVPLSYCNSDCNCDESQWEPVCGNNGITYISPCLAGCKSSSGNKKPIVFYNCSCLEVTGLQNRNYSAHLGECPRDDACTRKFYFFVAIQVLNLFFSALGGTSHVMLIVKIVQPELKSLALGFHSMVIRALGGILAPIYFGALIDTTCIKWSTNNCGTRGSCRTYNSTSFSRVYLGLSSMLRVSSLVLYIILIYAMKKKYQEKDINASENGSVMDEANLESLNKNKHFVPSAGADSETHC
The data set is described as follows: Inhibition of OATP1B1 (unknown origin) expressed in HEK293 cells using pitavastatin substrate. The format is ADME, cell-based.

Data set [2] addresses T1, Solute carrier organic anion transporter family member 1B1. In words: Inhibition of OATP1B1 (unknown origin) expressed in HEK293 cells using estradiol-17beta-glucuronide substrate. The format is ADME, cell-based.
Data set [3] shares this target. The data set is described as follows: Inhibition of OATP1B1 (unknown origin) expressed in HEK293 cells using estrone-3-sulfate substrate. The format is ADME, cell-based.
Substrate in data set [4]: C[C@]12CC[C@@H]3c4ccc(O)cc4CC[C@H]3[C@@H]1CC[C@@H]2O[C@@H]1O[C@H](C(=O)O)[C@@H](O)[C@H](O)[C@H]1O
In words: (§1) Drug uptake in HEK293 cells expressing OATP1B1 (unknown origin) assessed as OATP1B1-mediated drug transport. The format is ADME, cell-based, Homo sapiens.

Substrate in data set [5]: O=C(O)C[C@H](O)C[C@H](O)/C=C/c1c(C2CC2)nc2ccccc2c1-c1ccc(F)cc1
The description is as §1. The class given is ADME, cell-based, Homo sapiens.

The IC50 is the midpoint of a concentration-inhibition curve. Read a high IC50 as a need for much substance. As a reminder, the Km is the concentration of substrate that gives half-maximal velocity. As usually defined, the Vmax is the top rate of the reaction or transport when substrate is in excess.

As to `Cc1ccc(C)c(OCCCC(C)(C)C(=O)O)c1` [GEMFIBROZIL], the concentration for half-maximal inhibition (IC50) is 38 µM in data set [1], 11 µM in data set [2] and 130 µM in data set [3].

On to `CO[C@H]1/C=C/O[C@@]2(C)Oc3c(C)c(O)c4c(O)c(c(/C=N/N5CCN(C)CC5)c(O)c4c3C2=O)NC(=O)/C(C)=C\C=C\[C@H](C)[C@H](O)[C@@H](C)[C@@H](O)[C@@H](C)[C@H](OC(C)=O)[C@@H]1C` [RIFAMPIN], for which the results for the IC50 in data set [2] and in data set [3] were 0.3 µM and 2.3 µM, respectively.

B1: Solute carrier organic anion transporter family member 1B1 (Homo sapiens) (protein)
chain: MDQNQHLNKTAEAQPSENKKTRYCNGLKMFLAALSLSFIAKTLGAIIMKSSIIHIERRFEISSSLVGFIDGSFEIGNLLVIVFVSYFGSKLHRPKLIGIGCFIMGIGGVLTALPHFFMGYYRYSKETNINSSENSTSTLSTCLINQILSLNRASPEIVGKGCLKESGSYMWIYVFMGNMLRGIGETPIVPLGLSYIDDFAKEGHSSLYLGILNAIAMIGPIIGFTLGSLFSKMYVDIGYVDLSTIRITPTDSRWVGAWWLNFLVSGLFSIISSIPFFFLPQTPNKPQKERKASLSLHVLETNDEKDQTANLTNQGKNITKNVTGFFQSFKSILTNPLYVMFVLLTLLQVSSYIGAFTYVFKYVEQQYGQPSSKANILLGVITIPIFASGMFLGGYIIKKFKLNTVGIAKFSCFTAVMSLSFYLLYFFILCENKSVAGLTMTYDGNNPVTSHRDVPLSYCNSDCNCDESQWEPVCGNNGITYISPCLAGCKSSSGNKKPIVFYNCSCLEVTGLQNRNYSAHLGECPRDDACTRKFYFFVAIQVLNLFFSALGGTSHVMLIVKIVQPELKSLALGFHSMVIRALGGILAPIYFGALIDTTCIKWSTNNCGTRGSCRTYNSTSFSRVYLGLSSMLRVSSLVLYIILIYAMKKKYQEKDINASENGSVMDEANLESLNKNKHFVPSAGADSETHC
In the case of B1, the results for the Michaelis constant (Km) in data set [4] and in data set [5] were 3.6 µM and 4.8 µM, respectively. Also, the figures for the Vmax in data set [4] and in data set [5] were 0.0002 µmol/min and 0.00045 µmol/min, respectively.
